# Measured values: the supplement of paper PMC13380429
# Counter-ions that a name gives are not always drawn.
# How the values were obtained:
# Conditions in all cases: 72 h
# HepG2 [1] = assay: cell viability relative to DMSO; higher = less toxic
# Calu-3 [2] = assay: as above
# Vero E6 [3] = assay: as above
# U2OS [4] = assay: as above
# Caco-2 [5] = assay: as above
# HepG2 [6] = assay: relative viability EC50 (midpoint between 100% and the lowest measured viability); higher = less toxic
# Calu-3 [7] = assay: as above
# Vero E6 [8] = assay: as above
# U2OS [9] = assay: as above
# Caco-2 [10] = assay: as above
# HepG2 [11] = assay: drug sensitivity score (DSS) for viability; higher = more toxic; extreme values may be limits of the assay
# Calu-3 [12] = assay: as above
# Vero E6 [13] = assay: as above
# U2OS [14] = assay: as above
# Caco-2 [15] = assay: as above
Structure (SMILES),cell viability (HepG2 [1]; 1 nM) [%],cell viability (HepG2 [1]; 10 nM) [%],cell viability (HepG2 [1]; 100 nM) [%],cell viability (HepG2 [1]; 1000 nM) [%],cell viability (HepG2 [1]; 10000 nM) [%],cell viability (Calu-3 [2]; 1 nM) [%],cell viability (Calu-3 [2]; 10 nM) [%],cell viability (Calu-3 [2]; 100 nM) [%],cell viability (Calu-3 [2]; 1000 nM) [%],cell viability (Calu-3 [2]; 10000 nM) [%],cell viability (Vero E6 [3]; 1 nM) [%],cell viability (Vero E6 [3]; 10 nM) [%],cell viability (Vero E6 [3]; 100 nM) [%],cell viability (Vero E6 [3]; 1000 nM) [%],cell viability (Vero E6 [3]; 10000 nM) [%],cell viability (U2OS [4]; 1 nM) [%],cell viability (U2OS [4]; 10 nM) [%],cell viability (U2OS [4]; 100 nM) [%],cell viability (U2OS [4]; 1000 nM) [%],cell viability (U2OS [4]; 10000 nM) [%],cell viability (Caco-2 [5]; 1 nM) [%],cell viability (Caco-2 [5]; 10 nM) [%],cell viability (Caco-2 [5]; 100 nM) [%],cell viability (Caco-2 [5]; 1000 nM) [%],cell viability (Caco-2 [5]; 10000 nM) [%],relative viability EC50 (HepG2 [6]) [µM],relative viability EC50 (Calu-3 [7]) [µM],relative viability EC50 (Vero E6 [8]) [µM],relative viability EC50 (U2OS [9]) [µM],relative viability EC50 (Caco-2 [10]) [µM],drug sensitivity score (HepG2 [11]),drug sensitivity score (Calu-3 [12]),drug sensitivity score (Vero E6 [13]),drug sensitivity score (U2OS [14]),drug sensitivity score (Caco-2 [15])
CN[C@@H](C)C(=O)N[C@H](C(=O)N1CCC[C@H]1C(=O)N[C@H]1c2ccccc2C[C@H]1OCC#CC#CCO[C@@H]1Cc2ccccc2[C@@H]1NC(=O)[C@@H]1CCCN1C(=O)[C@@H](NC(=O)[C@H](C)NC)C1CCCCC1)C1CCCCC1 [AZD5582],107,98.8,94,106,87.8,102,99.8,85.8,73.2,37.7,100,106,119,95.2,136,98.3,104,98.4,101,91.1,93.3,103,102,93.4,82.4,> 10,0.927,> 10,> 10,> 10,0,6.8,0,0,1.1
CSc1ccc(C(=O)N[C@@H]2CCCC[C@@H]2NC(=O)CNC(=O)c2cc(C(F)(F)F)ccc2NC(=O)NC(C)C)cc1 [BMS-CCR2-22],108,95.8,101,98,88,112,94,98.1,101,101,101,102,102,101,95.1,102,101,96.5,103,94.5,93.2,87.7,94.5,100,89.6,> 10,> 10,> 10,> 10,> 10,0.1,0,0,0,0
c1ccc2nc(C3=NCCN3)ccc2c1 [BU-224],104,94.3,94.2,99.8,87.2,98.5,106,106,89.3,119,98.7,99.5,97.3,102,99,99.8,98.8,99.2,95.6,98.8,97.7,96.9,101,88.7,90.2,> 10,> 10,> 10,> 10,> 10,0.1,0,0,0,0.3
CO/N=C(\C(=O)N[C@@H]1C(=O)N2C(C(=O)O)=C(Cn3ccc(=N)n3CCO)CS[C@H]12)c1csc(N)n1 [Cefoselis sulfate],102,116,91.4,103,101,95.8,100,95.7,96.1,104,103,102,105,97.2,101,96.6,103,93.8,102,101,106,97.6,90.7,106,93.8,> 10,> 10,> 10,> 10,> 10,0,0,0,0,0
O=[N+]([O-])c1cc2nc(O)c(O)nc2cc1[N+](=O)[O-] [DNQX],102,101,95.6,101,102,96.8,96.3,100,97.4,94.3,86.8,96.1,89.2,95.8,102,104,96.8,101,93.6,98,86.4,94.2,97.4,89.3,94.4,> 10,> 10,> 10,> 10,> 10,0,0,0,0,0
CCC(C)(C)C(=O)C(=O)N1CCC[C@H]1C(=O)OCCCc1cccnc1 [GPI-1046],86.9,98.6,108,90.7,91.4,101,88.9,106,103,113,100,96.4,100,91.6,96.9,97.6,95.3,91.7,102,104,96.5,96,89.5,105,105,> 10,> 10,> 10,> 10,> 10,0.6,0,0,0,0
O=C1S/C(=C\c2ccc(OCc3cccc(B(O)O)c3)cc2)C(=O)N1Cc1ccc(F)cc1 [HA-130],102,98.7,94.8,101,103,95.2,110,99.6,105,93.7,95.5,97.2,103,91.9,93.4,95.6,97.5,94.7,98.7,90.6,93.4,96,97,97.6,92.8,> 10,> 10,> 10,> 10,> 10,0,0,0,0,0
